# Test results as given in publication PMC3853684 (Scientific Reports, 2013).
# Key:
# [1] = intranasal 16 or 24 IU; cited from earlier work
# [2] = monkeys, starting level, cervical puncture; cited from earlier work
# [3] = cited from earlier work
# [4] = cited from earlier work; remark: listed apart in the source
# [5] = intravenous injection, animal-based work; cited from earlier work
# [6] = Plasma OXT concentration after intranasal OXT; format: in vivo; conditions: male, human, inhaled or intranasal, 24 IU
# [7] = humans, cited from earlier work
Compound,duration of increase in OXT saliva concentrations [1],OXT CSF concentration before increase [2],time of increases in OXT plasma concentrations ([3]; intranasal 24 IU),"time of peak elevated OXT plasma concentrations ([3]; intranasal OXT 30 IU, three male volunteers)",increase of half-life in CSF (compared to plasma) [4],fraction of the peptide that crossed the blood-brain barrier (BBB) [5],Tmax [6],level at 1.5 h ([6]; SD),time to increase in CSF concentrations ([7]; intranasal 40 IU),increase in CSF concentrations (fold) ([7]; intranasal 80 IU),time to significant increase in CSF concentrations ([7]; intranasal 80 IU)
"CC[C@H](C)[C@@H]1NC(=O)[C@H](Cc2ccc(O)cc2)NC(=O)[C@@H](N)CSSC[C@@H](C(=O)N2CCC[C@H]2C(=O)N[C@@H](CC(C)C)C(=O)NCC(N)=O)NC(=O)[C@H](CC(N)=O)NC(=O)[C@H](CCC(N)=O)NC1=O [OXT, oxytocin]",up to 7 h,around 20 pg/ml,30 to 40 min,10 to 40 min,30–40 fold,approximately 0.01%,15 min,0.0123 ± 0.006 ng/mL,,,
arginine vasopressin [arginine vasopressin (AVP)],,,,,,,,,up to 60 min,up to 4 fold,10 min
